Consider 14 compounds from PubChem BioAssay (NCI).

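Dose response: 5 concentrations. Exposure: 48 h. Format: 96-well plates. Endpoint: linear interpolation; highest concentration if not reached. TGI denotes the concentration required for complete inhibition of growth.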 Where a SMILES comes first, the peptide text is derived from it. The star is where a group is joined. Boc = CC(C)(C)OC(=O)*; OtBu = CC(C)(C)O*

Common to all, as to experiment: inhibition of tumour cell growth, NCI panel, 48 h
Assay [1] relates to 786-0 renal.
In assay [2] the test system is MCF7 breast.
Assay [3] deals with COLO 205 colon.
For assay [4], the system named is NCI/ADR-RES ovarian.
The subject of assay [5] is NCI-H226 lung.
Assay [6] concerns MOLT-4 leukemia.
Assay [7] relates to PC-3 prostate.
In assay [8] the test system is HCT-116 colon.
Assay [9] concerns MDA-MB-435.
The subject of assay [10] is MALME-3M melanoma.
Assay [11] deals with OVCAR-4 ovarian.
The subject of assay [12] is K-562 leukemia.
The test system of assay [13] is BT-549 breast.
In assay [14] the test system is UACC-257 melanoma.
Assay [15] relates to SW-620 colon.
Assay [16] has as its system SK-MEL-2 melanoma.
Assay [17] deals with UO-31 renal.
In assay [18] the test system is SF-295 CNS.
For assay [19], the system named is HCT-15 colon.
Assay [20] relates to HOP-62 NSCLC.

For `FC(F)(F)c1ccc2c(c1)nc(Cc1ccc(Cl)cc1)n2CC1CCCN2CCCCC12` (stereo not drawn), the TGI in assay [1] is 20.7 µM; in [2] it was 21.8 µM; in assay [3] it was 16 µM; in assay [4], 20.8 µM; in [5] it was 24.2 µM; in [6], 10.4 µM. Also, the TGI was 20.9 µM in [7]; 19.9 µM in assay [8]; 24.4 µM in assay [9]; 3.8 µM in assay [10]; 36.1 µM in assay [11]; 19.4 µM in assay [12]. Besides, the TGI in [13] was determined as 23.7 µM; in assay [14], 8.41 µM; in assay [15], 27.4 µM; in [16], 26.4 µM; in assay [17] it was 0.0985 µM; in assay [18], 22.3 µM. Moreover, the TGI is 20.9 µM in assay [19] and 27.7 µM in [20].

`CCOP(=O)(OCC)/C(F)=C/c1ccc(F)cc1`: the TGI in [1], in [2], in assay [3], in [4], in [6] and in assay [7] was over 100 µM in each case. The TGI in assay [8], in assay [9], in assay [10], in [11], in [12] and in assay [13] was over 100 µM in each case. The TGI in assay [14], in [15], in [16], in assay [17], in assay [18] and in [19] was over 100 µM in each case. In assay [20], this compound displayed a TGI of over 100 µM.

On to `COc1cc(CCNC2=CC(=O)c3ncccc3C2=O)ccc1O`, for which the TGI in assay [1] is 18.1 µM; in assay [2] it was 6.06 µM; in assay [3] it was 32.6 µM; in assay [4], over 23.3 µM; in assay [5], 6.62 µM; in [6], 22.8 µM. For the same compound, the TGI in assay [7] is 22.5 µM; in assay [8], over 34.4 µM; in assay [9] it was 2.84 µM; in [10] it was 1.98 µM; in assay [11], 12.1 µM; in assay [12] it was 17.7 µM. In addition, the TGI in assay [13] came out at 2.99 µM; in assay [14], 4.28 µM; in assay [15], 12.1 µM; in [16], 9.79 µM; in [17] it was 17.3 µM; in assay [18], 4.02 µM. Further, the TGI in assay [19] is over 34.6 µM; in [20] it was 9.5 µM.

With `COC1=C(OC)C(=O)c2cc(C)c(=O)c(C)cc2C1=O`, the TGI is 24.5 µM in assay [1]; 36.4 µM in assay [2]; 34.7 µM in assay [3]; 39.4 µM in [4]; 39.3 µM in assay [5]; 15.6 µM in assay [6]. For the same compound, the TGI in assay [7] is 49.6 µM; in assay [8] it was 28.9 µM; in assay [9], 3.49 µM; in [10] it was 30.8 µM; in assay [11] it was 7.64 µM; in assay [12], over 24 µM. Also, the TGI came to 28.5 µM in assay [13]; 25.6 µM in [14]; 20.7 µM in [15]; 36.8 µM in [16]; 27.9 µM in [17]; 48.5 µM in assay [18]. The TGI in assay [19] is 45.7 µM; in assay [20], 36.6 µM.

With `O=C1C(CN2CCCC2)CCC1CN1CCCC1` (stereo not drawn), the TGI in assay [1] is 29.8 µM; in assay [2], 39.3 µM; in assay [3], 17.5 µM; in [4] it was 56.8 µM; in assay [5] it was over 74.4 µM; in [6] it was 39.9 µM. In addition, the TGI in [7] was over 55.9 µM; in assay [8], 32.6 µM; in [9], 32.9 µM; in assay [10], 29 µM; in assay [11] it was 48.7 µM; in assay [12], over 33.4 µM. Moreover, the TGI in [13] is 31.8 µM; in assay [14], 32.6 µM; in assay [15] it was 11 µM; in assay [16], 47.1 µM; in [17], 32.1 µM; in [18] it was over 100 µM. Also, the TGI in assay [19] is 31.8 µM; in [20], over 100 µM.

On to `Nc1nc(NCc2ccccc2)cc(NCc2ccccc2)n1`, for which the TGI in assay [1] was 22.5 µM; in assay [2], 6.36 µM; in [3], 27.3 µM; in assay [4], 15.3 µM; in assay [5], 27.5 µM; in assay [6], over 100 µM. The TGI was 16.8 µM in assay [7]; 21.2 µM in [8]; 18.9 µM in assay [9]; 21.7 µM in assay [10]; 28.3 µM in assay [11]; over 100 µM in [12]. In addition, the TGI in assay [13] was 23.5 µM; in assay [14], 21.6 µM; in assay [15], over 100 µM; in assay [16], 31.2 µM; in [17], 21 µM; in [18], 69 µM. In addition, the results for the TGI in assay [19] and in assay [20] were 18.3 µM and 41.7 µM, respectively.

Consider `CC(=O)OCCn1c(Cc2ccc(Cl)cc2)nn(C(C)=O)c1=O`, for which the TGI in [1], in assay [2], in [3], in [4], in [5] and in [6] was over 100 µM throughout. The TGI in assay [7], in assay [8], in assay [9], in [10], in assay [11] and in [12] was over 100 µM throughout. Further, the TGI in [13], in assay [14], in assay [15], in [16], in assay [17] and in assay [18] was over 100 µM each time. The compound further yielded a TGI in assay [19] of over 100 µM.

For `O=C(O)CN1CCN2CCOCCN(CC1)CCN(CC(=O)O)CC2`, the TGI in assay [1], in assay [2], in [3], in [4], in assay [5] and in [6] was over 100 µM in each case. The TGI in [7], in assay [8], in [9], in [10], in assay [11] and in [12] was over 100 µM in each case. Moreover, the TGI in assay [13], in assay [14], in [15], in assay [16], in assay [17] and in [18] was over 100 µM throughout. Moreover, the TGI in [19] and in assay [20] was over 100 µM throughout.

On to `O=C(NNC(=O)c1cc2ccccc2[nH]1)c1cc2ccccc2[nH]1`, for which the TGI in [1], in assay [2], in assay [3], in assay [4], in assay [5] and in [6] was over 100 µM throughout. For the same compound, the TGI in [7], in assay [8], in assay [9], in assay [10], in assay [11] and in [12] was over 100 µM each time. For the same compound, the TGI in assay [13], in assay [14], in assay [15], in [16], in assay [17] and in assay [18] was over 100 µM each time. The TGI in assay [19] and in [20] was over 100 µM in each case.

Consider `O=c1[nH]nc(Nc2ccc(Cl)cc2)c2nnn(-c3ccc([N+](=O)[O-])cc3)c12`, for which the TGI was 35.5 µM in assay [1]; 47.4 µM in assay [2]; 49.7 µM in assay [3]; over 100 µM in assay [4]; over 100 µM in assay [5]; 45.2 µM in assay [6]. The TGI is 68.8 µM in assay [7]; 42.4 µM in assay [8]; over 100 µM in assay [9]; over 100 µM in assay [10]; over 100 µM in assay [11]; 29.9 µM in [12]. Moreover, the TGI in [13] is over 100 µM; in assay [14] it was over 100 µM; in assay [15], over 100 µM; in [16], 82.2 µM; in [18], over 100 µM; in assay [19] it was over 100 µM. Further, the TGI in assay [20] is over 100 µM.

For the compound `CC(C)(C)OC(=O)CC(NC(=O)OC(C)(C)C)C(=O)NC(Cc1ccccc1)C(N)=O` (stereo not drawn) (Boc-Asp(OtBu)-Phe-NH2; configuration not given here), the TGI in assay [1], in assay [2], in [3], in assay [4], in assay [5] and in assay [7] was over 100 µM throughout. In addition, the TGI in assay [8], in assay [9], in assay [10], in assay [11], in assay [12] and in assay [13] was over 100 µM in each case. The TGI in [14], in assay [15], in [16], in assay [17], in assay [18] and in assay [19] was over 100 µM throughout. Further, the TGI in assay [20] is over 100 µM.

In the case of `C=C1C(=O)O[C@H]2[C@@H]3O[C@@](C)(CC/C=C(\C)CCC[C@@H]2C)[C@H](O)C[C@@H]13`, the TGI in assay [1] worked out at 16.2 µM; in assay [2] it was 15.6 µM; in assay [3], 8.86 µM; in assay [4], 7.62 µM; in assay [5], 5.89 µM; in [7] it was 22.1 µM. Besides, the TGI in assay [8] is over 100 µM; in [9], 53.6 µM; in [10], 53.3 µM; in assay [11], 34.8 µM; in assay [12] it was over 100 µM; in assay [13] it was 8.1 µM. Besides, the TGI was 27.4 µM in [14]; over 100 µM in assay [15]; 27 µM in assay [16]; 11.9 µM in [17]; 27.8 µM in [18]; 24.4 µM in assay [19]. The same compound returned a TGI in assay [20] of 23.1 µM.

With `COC(=O)[C@@H](N1C(=O)c2ccccc2C1=O)C1(C)CC(Cl)=NO1` (stereo partly drawn), the TGI in assay [1] was over 100 µM; in [2], over 100 µM; in assay [3], over 100 µM; in assay [4] it was 68.2 µM; in assay [5] it was over 100 µM; in [7], over 100 µM. Besides, the TGI in assay [8], in assay [9], in [10], in assay [11], in [12] and in assay [13] was over 100 µM in each case. The TGI was over 100 µM in assay [14]; over 100 µM in assay [15]; over 100 µM in assay [16]; over 100 µM in assay [17]; 74.3 µM in assay [18]; over 100 µM in [19]. The compound also returned a TGI in assay [20] of 38.9 µM.

As for `CCOC(=O)c1c2ccccc2n2c(=O)n(-c3ccccc3)nnc12`, the TGI in [1], in assay [2], in assay [3], in [4], in assay [5] and in assay [7] was over 100 µM each time. The TGI is over 100 µM in assay [8]; over 100 µM in assay [9]; over 100 µM in assay [10]; over 100 µM in [11]; 47.3 µM in [12]; over 100 µM in assay [13]. The TGI in [14] was over 100 µM; in assay [15], over 100 µM; in assay [16], over 100 µM; in assay [17], over 100 µM; in assay [18], over 49.1 µM; in assay [19], over 100 µM. For the same compound, in [20], the TGI is over 100 µM.
